These results are taken from ChEMBL document CHEMBL5154848, “Synthesis of heterocyclic ring-fused analogs of HMG499 as novel degraders of HMG-CoA reductase that lower cholesterol” (Eur J Med Chem, 2022).

The nature of assay [1]: Downregulation of HMGCR expression in CHO-K1 cells assessed as fold change in HMGCR expression at 3 uM incubated for 16 hrs by immunoblot analysis (reference value: 1.0). The assay is classed as functional, Cricetulus griseus.
Assay [2] is described as follows: Downregulation of HMGCR expression in CHO-K1 cells assessed as fold change in HMGCR expression at 1 uM incubated for 16 hrs by immunoblot analysis (reference value: 1.0). Format: functional, Cricetulus griseus. A general note: In western blotting, separated proteins are transferred to a membrane and probed.
The target in assay [3] is T1, 3-hydroxy-3-methylglutaryl-coenzyme A reductase (Cricetulus griseus, UniProt P00347).
T1 sequence (P00347 whole entry): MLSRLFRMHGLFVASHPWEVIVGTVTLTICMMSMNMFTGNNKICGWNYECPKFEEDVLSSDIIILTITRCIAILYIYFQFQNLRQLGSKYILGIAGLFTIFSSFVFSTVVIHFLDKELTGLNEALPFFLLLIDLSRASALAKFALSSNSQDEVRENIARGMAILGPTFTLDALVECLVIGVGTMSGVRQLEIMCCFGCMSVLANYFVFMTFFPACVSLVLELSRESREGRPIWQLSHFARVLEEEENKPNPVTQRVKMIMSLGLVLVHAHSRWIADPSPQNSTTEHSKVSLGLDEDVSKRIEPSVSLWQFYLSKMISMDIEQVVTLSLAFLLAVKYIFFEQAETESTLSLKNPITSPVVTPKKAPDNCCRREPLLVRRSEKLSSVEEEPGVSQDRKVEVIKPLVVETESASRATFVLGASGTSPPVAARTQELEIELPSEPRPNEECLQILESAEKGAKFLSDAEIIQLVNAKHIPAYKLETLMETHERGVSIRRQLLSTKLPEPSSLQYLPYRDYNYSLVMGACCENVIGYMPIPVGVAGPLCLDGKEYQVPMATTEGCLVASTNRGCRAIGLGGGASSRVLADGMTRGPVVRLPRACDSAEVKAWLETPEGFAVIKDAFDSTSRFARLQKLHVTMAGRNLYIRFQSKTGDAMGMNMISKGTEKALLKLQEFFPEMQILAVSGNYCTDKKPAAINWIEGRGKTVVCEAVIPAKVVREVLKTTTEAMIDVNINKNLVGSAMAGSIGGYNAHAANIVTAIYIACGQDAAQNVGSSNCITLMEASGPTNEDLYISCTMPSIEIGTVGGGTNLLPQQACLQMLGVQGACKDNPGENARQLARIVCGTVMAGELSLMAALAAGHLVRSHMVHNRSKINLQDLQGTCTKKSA
Put plainly: Induction of degradation of hamster HMGCR (TM1-8)-GFP (1 to 346 residues) transfected in CHO-7 cells incubated for 16 hrs in sterol-depleted medium by fluorescence based microplate reader assay. Format: cell-based.

A short description of assay [4]: Downregulation of lovastatin-induced HMGCR expression in CHO-K1 cells assessed as fold change in HMGCR expression at 1 uM incubated for 16 hrs by immunoblot analysis (reference value: 15.2). Format: functional, Cricetulus griseus.
Assay [5] is described as follows: Downregulation of lovastatin-induced HMGCR expression in CHO-K1 cells assessed as fold change in HMGCR expression at 3 uM incubated for 16 hrs by immunoblot analysis (reference value: 15.2). Format: functional, Cricetulus griseus.
A further assay has as its system CHO-K1. Put plainly: Downregulation of lovastatin-induced HMGCR expression in CHO-K1 cells incubated for 16 hrs by immunoblot analysis. The assay is classed as functional, cell-based. As to conditions: Cricetulus griseus, dose 1-10 µM, DDE = dose-dependent effect.
For assay [6], the target named is T2, 3-hydroxy-3-methylglutaryl-coenzyme A reductase (Homo sapiens) (UniProt P04035).
T2 sequence (whole entry): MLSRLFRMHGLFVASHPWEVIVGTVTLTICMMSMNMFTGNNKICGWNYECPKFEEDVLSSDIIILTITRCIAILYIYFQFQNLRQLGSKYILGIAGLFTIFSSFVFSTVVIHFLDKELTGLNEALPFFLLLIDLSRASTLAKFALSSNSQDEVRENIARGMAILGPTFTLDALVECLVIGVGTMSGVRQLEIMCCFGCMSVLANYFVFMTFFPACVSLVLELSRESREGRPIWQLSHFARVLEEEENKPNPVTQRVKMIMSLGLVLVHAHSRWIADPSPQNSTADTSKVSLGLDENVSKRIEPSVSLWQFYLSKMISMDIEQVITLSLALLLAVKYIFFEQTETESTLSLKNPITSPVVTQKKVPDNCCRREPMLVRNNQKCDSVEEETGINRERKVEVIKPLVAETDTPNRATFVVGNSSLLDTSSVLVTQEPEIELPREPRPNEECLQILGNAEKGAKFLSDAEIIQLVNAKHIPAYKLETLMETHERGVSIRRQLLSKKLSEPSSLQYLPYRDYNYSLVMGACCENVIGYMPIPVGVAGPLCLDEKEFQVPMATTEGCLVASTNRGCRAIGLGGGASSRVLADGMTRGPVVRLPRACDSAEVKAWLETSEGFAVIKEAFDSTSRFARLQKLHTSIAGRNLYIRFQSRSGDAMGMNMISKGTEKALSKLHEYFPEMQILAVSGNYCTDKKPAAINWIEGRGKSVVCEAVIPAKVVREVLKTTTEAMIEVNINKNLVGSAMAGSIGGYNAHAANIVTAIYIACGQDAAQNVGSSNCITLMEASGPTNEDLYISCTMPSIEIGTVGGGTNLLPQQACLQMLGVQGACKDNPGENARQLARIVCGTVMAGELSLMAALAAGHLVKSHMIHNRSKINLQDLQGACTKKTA
Put plainly: Induction of HMGCR-T7 (unknown origin) degradation transfected in CHO-K1 cells assessed as HMGCR ubiquitination preincubated in sterol-depleted medium for 16 hrs followed by compound addition and measured after 4 hrs in presence of MG-132 by immuno-precipicitation analysis. The assay is classed as cell-based. The conditions noted are these: DDE = dose-dependent effect.

Assay [7] relates to LX-2. Briefly: Downregulation of TGF-beta-1-induced cholesterol levels in human LX2 cells starved in serum free medium for 2 hrs followed by stimulation with TGF-beta-1 for 6 hrs and measured 24 hrs after compound treatment by. Format: functional, cell-based. As to conditions: DDE = dose-dependent effect.
Assay [8] has as its system LX-2. Briefly: Downregulation of TGF-beta-1-induced alpha-SMA mRNA levels in serum starved human LX2 cells pretreated with TGF-beta-1 for 6 hrs followed by compound treatment for 24 hrs by SYBR green dye based qRT-PCR analysis. Format: functional, cell-based. The conditions noted are these: dose <= 2.0 µM, DDE = dose-dependent effect.
For assay [9], the system named is LX-2. Put plainly: Downregulation of TGF-beta-1-induced COL1A1 mRNA levels in serum starved human LX2 cells pretreated with TGF-beta-1 for 6 hrs followed by compound treatment for 24 hrs by SYBR green dye based qRT-PCR analysis. As to conditions: dose <= 2.0 µM, DDE = dose-dependent effect. Format: functional, cell-based. (Real-time PCR tracks product formation cycle by cycle.)

Assay [10] relates to LX-2. Put plainly: Downregulation of TGF-beta-1-induced alpha-SMA protein level in serum starved human LX2 cells pretreated with TGF-beta-1 for 6 hrs followed by compound treatment for 24 hrs by Western blot analysis. The conditions noted are these: DDE = dose-dependent effect. Format: functional, cell-based.
Assay [11] concerns RAW264.7. Briefly: Downregulation of LPS-stimulated cholesterol levels in mouse RAW264.7 cells pretreated with LPS for 2 hrs followed by compound treatment for 24 hrs. Format: functional, cell-based. The conditions noted are these: dose <= 2.0 µM, DDE = dose-dependent effect.
In assay [12] the test system is RAW264.7. Briefly: Downregulation of LPS-stimulated IL-6 mRNA levels in mouse RAW264.7 cells pretreated with LPS for 2 hrs followed by compound treatment for 24 hrs by SYBR green dye based qRT-PCR analysis. The conditions noted are these: dose <= 2.0 µM, DDE = dose-dependent effect. The assay is classed as functional, cell-based.
Assay [13] deals with RAW264.7. Briefly: Downregulation of LPS-stimulated IL-1-beta mRNA levels in mouse RAW264.7 cells pretreated with LPS for 2 hrs followed by compound treatment for 24 hrs by SYBR green dye based qRT-PCR analysis. The conditions noted are these: dose <= 2.0 µM, DDE = dose-dependent effect. Format: functional, cell-based.

Broadly, the EC50 is the midpoint of the concentration-response curve. The low end stands for an effect from little substance, the high end for a need for much substance.

On to `CC(=O)n1ncc2c1C(C)(C)C1=CC[C@H]3[C@@H]4CC[C@H]([C@H](C)CCC(=O)N5CCOCC5)[C@@]4(C)CC[C@@H]3[C@@]1(C)C2`, for which the “fold change (FC)” value in assay [1] is recorded as 0.1; in assay [2] it was 0.3; in assay [4] it was 2.4; in assay [5], 1. Besides, in assay [3], the response was half-maximal at 220 nM (EC50). Further, the Activity entry (in the assay on CHO-K1; in [6]; in the assay on LX-2 [7]; with LX-2 [8]; in the assay with LX-2 [9]; in the assay with LX-2 [10]) was “Dde” each time. The Activity entry with RAW264.7 [11], in the assay on RAW264.7 [12] and with RAW264.7 [13] was “Dde” throughout.
